Test results: publication PMC8699537, “In Vitro Anti-SARS-CoV-2 Activity of Selected Metal Compounds and Potential Molecular Basis for Their Actions Based on Computational Study” (Biomolecules, 2021)
Read-outs that look alike come from different tables or passages of the source.

How the values were obtained:
Calu-3 cells = assay: Cytotoxicity, CellTiter-Glo 2.0 Luminescent Cell Viability Assay; details: read-out: CC50 (half-maximal cytotoxic concentration), 48h exposure
SARS-CoV-2 [1] = type: cell-based; details: for IC50 (half-maximal inhibitory concentration), SYRA: DYRA supernatants on VERO E6 cells, 24 h
SARS-CoV-2 [2] = assay: microbe, parasite or virus in culture; type: cell-based; details: for IC50 (half-maximal inhibitory concentration), DYRA / IC50: Calu-3 cells, SARS-CoV-2 lineage B.1, 48h, DYRA; for IC50: read-out: IC50 (half-maximal inhibitory concentration), DYRA
Huh-7 cells = system: Huh-7 cells; design: method as in PMID 32442105; details: cited from earlier work
SARS-CoV-2 [3] = system: SARS-CoV-2; design: method as in PMID 32442105; details: Huh-7 cells; viral RNA in cell supernatant; cited from earlier work
in vitro = details: human

| SMILES | CC50 (Calu-3 cells) [µM] | IC50 (half-maximal inhibitory concentration), SYRA (SARS-CoV-2 [1]) | IC50 (half-maximal inhibitory concentration), DYRA (SARS-CoV-2 [2]) | further results |
| --- | --- | --- | --- | --- |
| CC[P](CC)(CC)[Au][I] [Au(Pet3)I] | 12 | Not active ^3 | Not active ^3 | – |
| CCOC(=O)CN(C)C1=[S+][Au-]([Br])([Br])[S]1 [AuL12] | 19 | Not active ^3 | Not active ^3 | – |
| CC(=O)OC[C@H]1O[C@@H]([S-])[C@H](OC(C)=O)[C@@H](OC(C)=O)[C@@H]1OC(C)=O.CCP(CC)CC.[Au+] [Auranofin] | 3.7 | Not active ^3 | Not active ^3 | CC50 (Huh-7 cells): 5.7 µM; IC50 (SARS-CoV-2 [3]): 1.4 µM |
| Cl.[Cl-].[Cl-].[Cl-].[Ru+3].c1ccc2[nH]ncc2c1.c1ccc2[nH]ncc2c1.c1ccc2[nH]ncc2c1 [KP1019] | 60 | – | – | IC50 (SARS-CoV-2 [2]): 8.8 ± 1.5 µM |
| CS(C)=O.[Cl-].[Cl-].[Cl-].[Cl-].[Ru+3].c1c[nH+]c[nH]1.c1c[nH]cn1 [NAMI-A] | – | Not active ^3 | Not active ^3 | – |
| Cl.[Cl-].[Cl-].[Cl-].[Ru+3].c1c[nH]cn1.c1c[nH]cn1 [NAMI-A] | > 200 | – | – | – |
| CCC(CC)COC(=O)[C@H](C)N[P@](=O)(OC[C@H]1O[C@@](C#N)(c2ccc3c(N)ncnn23)[C@H](O)[C@@H]1O)Oc1ccccc1 [Remdesivir] | – | – | – | CC50 (in vitro): 97 µM; Selectivity Index (SARS-CoV-2 [2]; CC50/IC50 ratio, IC50 from DYRA): 485; IC50 (SARS-CoV-2 [2]; Severe acute respiratory syndrome coronavirus 2): 0.2 ± 0.05 µM |
| [Cl][Sb]([Cl])[Cl] [SbCl3, antimony trichloride] | 200 | – | – | IC50 (SARS-CoV-2 [2]): 31.1 ± 15.3 µM |
| [Cl-].[Cl-].[Ti+4].c1cc[cH-]c1.c1cc[cH-]c1 [TiCp2Cl2, Titanocene dichloride] | > 200 | – | – | IC50 (SARS-CoV-2 [1]; read-out: IC50 (half-maximal inhibitory concentration), SYRA): 47.3 µM |
